# Measurements taken from ChEMBL document CHEMBL2203247, “Ribonuclease-Activated Cancer Prodrug” (ACS Med Chem Lett, 2012).
# Key:
# MCF7 [1] = experiment: Antiproliferative activity against human MCF7 cells assessed as incorporation of [methyl-3H]thymidine into cellular DNA in serum free medium in presence of 6.2 ug/mL RNase 1; assay type: functional, cell-based
# [2] = Prodrug stability assessed as 4-hydroxytamoxifen release at 40 uM in serum free medium in absence of RNase 1; assay type: ADME
# MCF7 [3] = experiment: Antiproliferative activity against human MCF7 cells assessed as incorporation of [methyl-3H]thymidine into cellular DNA in serum free medium in absence of 6.2 ug/mL RNase 1; assay type: functional, cell-based
# [4] = Prodrug stability assessed as 4-hydroxytamoxifen release at 40 uM in pH 7.4 ribonuclease free 0.10 M sodium phosphate buffer containing NaCl and in absence of RNase 1; assay type: physicochemical; conditions: pH 7.4, 40 µM
# [5] = Prodrug stability assessed as compound degradation at 37 degC after 11 hrs in absence of ribonuclease 1 at pH 6.0 by HPLC analysis; assay type: physicochemical; conditions: buffer, pH 6, 11 h
# Ribonuclease pancreatic = biological target: T1, Ribonuclease pancreatic (Homo sapiens, UniProt P07998); experiment: Prodrug activation assessed as half life for ribonuclease 1 mediated 4-hydroxytamoxifen release in MES-NaOH buffer at pH 6.0 by HPLC analysis
# T1 sequence (P07998 whole entry): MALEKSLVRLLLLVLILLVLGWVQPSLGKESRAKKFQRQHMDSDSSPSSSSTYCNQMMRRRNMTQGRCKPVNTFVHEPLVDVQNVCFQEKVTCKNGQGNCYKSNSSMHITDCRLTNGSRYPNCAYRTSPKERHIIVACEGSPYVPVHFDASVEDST
t1/2 [2] [h],t1/2 [4] [h],Drug degradation [5] [%],t1/2 (Ribonuclease pancreatic) [h],Structure (SMILES),IC50 (MCF7 [1]) [µM],IC50 (MCF7 [3]) [µM]
9,9.4,< 6,4,CC/C(=C(/c1ccc(OCCN(C)C)cc1)c1ccc(OP(=O)(O)O[C@H]2[C@@H](O)[C@H](n3ccc(=O)[nH]c3=O)O[C@@H]2CO)cc1)c1ccccc1,5.2,16.7
,,,,CCC(=C(c1ccc(O)cc1)c1ccc(OCCN(C)C)cc1)c1ccccc1,2.7,2.7
